Experimental data taken from PubChem BioAssay (NCI).
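In this assay, cells in 96-well plates receive the compound at five concentrations for 48 hours. Endpoints are linearly interpolated between the surrounding concentrations. GI50 = concentration required for 50% inhibition of growth. TGI denotes the concentration required for complete inhibition of growth.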

Columns and labels:
Experiment in all cases: NCI tumour cell line growth inhibition, 48 h
HOP-92 NSCLC = test system: HOP-92 NSCLC
786-0 renal = test system: 786-0 renal
SF-268 CNS = test system: SF-268 CNS
SK-MEL-28 melanoma = test system: SK-MEL-28 melanoma
SNB-19 CNS = test system: SNB-19 CNS
U251 CNS = test system: U251 CNS
CCRF-CEM leukemia = test system: CCRF-CEM leukemia
MCF7 breast = test system: MCF7 breast
SK-MEL-5 melanoma = test system: SK-MEL-5 melanoma

| Structure (SMILES) | TGI (HOP-92 NSCLC) | TGI (786-0 renal) | TGI (SF-268 CNS) | TGI (SK-MEL-28 melanoma) | TGI (SNB-19 CNS) | TGI (U251 CNS) | TGI (CCRF-CEM leukemia) | GI50 (MCF7 breast) | TGI (MCF7 breast) | GI50 (786-0 renal) | GI50 (SK-MEL-5 melanoma) | GI50 (SF-268 CNS) | GI50 (SNB-19 CNS) | GI50 (U251 CNS) | GI50 (HOP-92 NSCLC) | TGI (SK-MEL-5 melanoma) | GI50 (SK-MEL-28 melanoma) | GI50 (CCRF-CEM leukemia) |
| --- | --- | --- | --- | --- | --- | --- | --- | --- | --- | --- | --- | --- | --- | --- | --- | --- | --- | --- |
| COC(=O)C1CCC(N2C(=O)CCC2C(=O)OC)=N1 (centres undefined) | > 100 µM | > 100 µM | > 100 µM | > 100 µM | > 100 µM | > 100 µM | > 100 µM |  |  |  |  |  |  |  |  |  |  |  |
| CC(C)[C@H](O)C(=O)N[C@H]1Cc2ccc3c(c2)[C@]24C5=C(N=C(O5)[C@H](C(C)C)NC1=O)c1nc(Cl)c(o1)-c1c(Cl)[nH]c5cccc(c15)-c1cccc2c1N[C@H]4O3 |  | 2.77 µM | 7.32 µM |  |  |  | 0.0277 µM | < 0.001 µM | > 10 µM | 0.00279 µM | < 0.001 µM | < 0.001 µM | < 0.001 µM | < 0.001 µM |  |  |  |  |
| O=C(Nn1c2c(sc1=NC1CC1)C(=O)c1ccccc1C2=O)c1cc2ccc1CCc1ccc(cc1)CC2 | 14.4 µM | 7.93 µM | 11 µM | 5.22 µM | 11.7 µM | 11.1 µM | > 100 µM | 1.42 µM | 3.29 µM | 2.75 µM | 1.43 µM | 2.54 µM | 3.09 µM | 2.41 µM | 2.26 µM | 2.76 µM | 2.4 µM | 2.53 µM |
| Cc1cccc(NC(=O)Cc2nc3ccccc3s2)c1C |  | > 100 µM | > 100 µM | > 100 µM | > 100 µM |  | > 100 µM |  |  |  |  |  |  |  |  | > 100 µM |  |  |
| CN(C(=O)C1CC1)C1C2CN3CCC(O2)C13 (centres undefined) | > 100 µM | > 100 µM | > 100 µM | > 100 µM | > 100 µM | > 100 µM | > 100 µM |  |  |  |  |  |  |  |  | > 100 µM |  |  |
| CC(=O)Oc1cc(OC(C)=O)c2cc3c(cc2c1OC(C)=O)C(=O)C1(CCCC1)C3=O | 28.6 µM | 31.5 µM | 66.5 µM | 31.7 µM |  | 32.3 µM |  |  |  |  |  |  |  |  |  |  |  |  |
| CN(C)C(=S)/N=c1\ssc(=S)n1Cc1ccccn1 | 64.5 µM | 29.1 µM | > 100 µM | > 100 µM | > 100 µM | > 100 µM | > 26.2 µM |  |  |  |  |  |  |  |  | > 54.4 µM |  |  |
| CC(=O)[CH-]C(=O)c1ccccc1.CC(=O)[CH-]C(=O)c1ccccc1.CC12CC3(C)CC(C)(C1)CC([O-])(C2)C3.CC[O-].[Ti+4] | 55.3 µM | > 100 µM | 45.4 µM | 38.2 µM | 45.2 µM | 27.9 µM | > 100 µM |  |  | 29.3 µM | 30.8 µM | 18.6 µM | 20.9 µM | 13.5 µM | 19.1 µM | 64.4 µM | 17 µM | 28.7 µM |
| COC(=O)NN=C1C(C)(C)C(=NNC(=O)OC)C1(C)C | > 100 µM | > 100 µM | > 100 µM | > 100 µM | > 100 µM | > 100 µM | > 72.3 µM |  |  |  |  |  |  |  |  | > 100 µM |  |  |
| CC(C)(C)[Si](Nc1ccccc1)(c1ccccc1)c1ccccc1 | 28.3 µM | 28.4 µM | 28 µM | 32 µM | 27.1 µM | 26.8 µM | 39.7 µM |  |  |  |  |  |  |  |  | 34.2 µM |  |  |
| O/N=C1/C(=C/c2ccc(Cl)cc2)CCCC1C(NO)c1ccc(Cl)cc1 (centres undefined) |  | 42.7 µM | 40.2 µM | 22.5 µM | 76.6 µM | 50.8 µM | 42.6 µM |  |  |  |  |  |  |  |  | 66.2 µM |  |  |
| CN(C)NC(=S)NC12CC3CC(CC(C3)C1)C2 | > 100 µM | > 100 µM | > 100 µM | > 100 µM | > 100 µM | > 100 µM | > 100 µM |  |  |  |  |  |  |  |  | > 100 µM |  |  |
| C[n+]1ccc2[nH]c3ccccc3c2c1 | > 100 µM | > 100 µM | > 100 µM | > 100 µM | > 100 µM | > 100 µM | > 100 µM |  |  |  |  |  |  |  |  | > 100 µM |  |  |
| C/C(CC(=O)Nc1ccc(NC(=O)/C(C)=N/NS(=O)(=O)c2ccc(C)cc2)cc1)=N\NS(=O)(=O)c1ccc(C)cc1 | > 100 µM | > 100 µM | > 100 µM | > 100 µM |  | > 100 µM |  |  |  |  |  |  |  |  |  | > 100 µM |  |  |
| N#CNc1nc(C(=O)Nc2ccc(Cl)cc2)cc(-c2ccccc2)n1 | > 100 µM | > 100 µM | > 100 µM | > 100 µM | > 100 µM | > 100 µM |  |  |  |  |  |  |  |  |  | > 100 µM |  |  |
| CCc1ccccc1NC(=O)C1=C(C)NC(C)=C(C(=O)Nc2ccccc2CC)C1c1ccc(NC(C)=O)cc1 | 90.6 µM | > 100 µM | > 100 µM | 52.9 µM | > 100 µM | > 100 µM | 65.8 µM |  |  |  |  |  |  |  |  | > 100 µM |  |  |
| CC(=O)[CH-]C(=O)c1ccccc1.CC(=O)[CH-]C(=O)c1ccccc1.CC[O-].O=C1C=C([O-])C(=O)c2ccccc21.[Ti+4] | 82.8 µM | > 100 µM | > 100 µM | > 100 µM | > 100 µM | > 100 µM | > 100 µM |  |  | > 100 µM | 14 µM | > 100 µM | > 100 µM | 32.4 µM | 26.2 µM | > 100 µM | > 100 µM | 21 µM |
| O/N=C1/C(=C/c2ccccc2)CCCC1C(NO)c1ccccc1 (centres undefined) | > 100 µM | > 100 µM | > 100 µM | > 100 µM | > 100 µM |  |  |  |  |  |  |  |  |  |  |  |  |  |
